Data set [1] concerns patients with QT-3 (LQT3) syndrome. The settings on record: cited from earlier work.
A short description of data set [2]: In vitro human liver microsomal stability assay. Format: in vitro ADME. The settings on record: human liver microsomes 0.5 mg per mL protein, NADPH-generating system, 1 μM test compound, 37±1° C., 0-60 min; for half-life at 1 μM: degradation half-life; for CLint scaled at 1 μM: read-out: Clearance %. The procedure:
In Vitro Liver Microsomal Stability Assay
Human liver microsomal stability assays were conducted at 0.5 mg per mL liver microsome protein with an NADPH-generating system consisting of NADP (1 mM, pH 7.4), […] (5 mM, pH 7.4), and glucose-6-phosphate dehydrogenase (1 unit/mL).
Test compounds were prepared as solutions in DMSO and added to the assay mixture (1 μM, final concentration in incubation) to be incubated at 37±1° C. Reactions were initiated with the addition of cofactor and were stopped at 0, 15, 30, 45, and 60 min after cofactor addition with stop reagent (0.2 mL acetonitrile). Samples were centrifuged (920×g for 10 min at 10° C.) in 96-well plates. Supernatant fractions were analyzed by LC-MS/MS to determine the percent remaining and estimate the degradation half-life of the test compounds.
(Microsomes from liver hold many membrane-bound enzymes, among them those of drug oxidation.)

Turning to “4-(pyrimidin-2-ylmethyl)-7-[4-(trifluoromethoxy)phenyl]-2,3,4,5-tetrahydro-1,4-benzoxazepin-5-one [Example 1]”, in data set [1], the “effect on QTc interval” value was “shortening of the QTc interval”.
Consider `O=C1c2cc(-c3ccc(OC(F)(F)F)cc3)ccc2OCCN1Cc1ncccn1` [Example 1, 4-(pyrimidin-2-ylmethyl)-7-[4-(trifluoromethoxy)phenyl]-2,3,4,5-tetrahydro-1,4-benzoxazepin-5-one, reference compound], for which, in data set [2], the half-life at 1 μM turned out to be 2.36 h and the CLint scaled at 1 μM turned out to be 12.3 mL/min/kg.
With `[2H]C([2H])(c1ncccn1)N1CCOc2ccc(-c3ccc(OC(F)(F)F)cc3)cc2C1=O` [Example 2, 4-(pyrimidin-2-ylmethyl-d2)-7-(4-(trifluoromethoxy)phenyl)-3,4-dihydrobenzo[f][1,4]oxazepin-5(2H)-one], in data set [2], the half-life at 1 μM amounted to 9.52 h and the CLint scaled at 1 μM came out at 3.04 mL/min/kg.
`[2H]C1([2H])CN(Cc2ncccn2)C(=O)c2cc(-c3ccc(OC(F)(F)F)cc3)ccc2O1` [Example 3, 4-(pyrimidin-2-ylmethyl)-7-[4-(trifluoromethoxy)phenyl]-2,3,4,5-tetrahydro(2,2-d2)-1,4-benzoxazepin-5-one]: in data set [2], the half-life at 1 μM worked out at 4.62 h and the CLint scaled at 1 μM was found to be 6.27 mL/min/kg.
The matching figures for `[2H]C1([2H])COc2ccc(-c3ccc(OC(F)(F)F)cc3)cc2C(=O)N1Cc1ncccn1` [Example 4, 4-(pyrimidin-2-ylmethyl)-7-(4-(trifluoromethoxy)phenyl)-3,4-dihydrobenzo[f][1,4]oxazepin-5(2H)-one-3,3-d2]: 2.01 h and 14.4 mL/min/kg.
With `[2H]C1([2H])Oc2ccc(-c3ccc(OC(F)(F)F)cc3)cc2C(=O)N(Cc2ncccn2)C1([2H])[2H]` [Example 5, 4-(pyrimidin-2-ylmethyl)-7-[4-(trifluoromethoxy)phenyl]-2,3,4,5-tetrahydro(2,2,3,3-d4)-1,4-benzoxazepin-5-one], in data set [2], the half-life at 1 μM came to 1.35 h and the CLint scaled at 1 μM worked out at 21.5 mL/min/kg.
For `[2H]C([2H])(c1ncccn1)N1C(=O)c2cc(-c3ccc(OC(F)(F)F)cc3)ccc2OC([2H])([2H])C1([2H])[2H]` [Example 6, 4-[pyrimidin-2-yl(d2)methyl]-7-[4-(trifluoromethoxy)phenyl]-2,3,4,5-tetrahydro(2,2,3,3-d4)-1,4-benzoxazepin-5-one], in that order: 1.51 h and 19.2 mL/min/kg.
`[2H]c1c(-c2ccc(OC(F)(F)F)cc2)cc2c(c1[2H])OCCN(Cc1ncccn1)C2=O` [Example 7, 4-(pyrimidin-2-ylmethyl)-7-[4-(trifluoromethoxy)phenyl]-2,3,4,5-tetrahydro(8,9-d2)-1,4-benzoxazepin-5-one]: in data set [2], the half-life at 1 μM came to 2.32 h and the CLint scaled at 1 μM turned out to be 12.5 mL/min/kg.

What is called half-life is how long it takes for the measured level to halve.

Source of the values: patent US20180064726A1, “Deuterium-Substituted Oxazepin Compounds” (Auspex Pharmaceuticals, Inc., priority 2016, published 2018).
